Active and inactive are the calls of the source. The rule behind the calls is not given here.
How the values were obtained:
[1] = test system: HUVEC; experiment: Effect on intracellular NO production in HUVEC cells assessed as increase in NO level at 5 uM incubated for 24 hrs by inverted microscopic analysis; format: functional, cell-based; settings: Homo sapiens
[2] = test system: HUVEC; experiment: Cytotoxicity against HUVEC cells assessed as reduction in cell viability at 5 uM in absence of TBHP by CCK8 assay; format: toxicity, cell-based; settings: human
[3] = test system: HUVEC; experiment: Cytoprotective activity against TBHP induced oxidative stress in human HUVEC cells assessed as increase in cell viability at 5 uM by CCK8 assay; format: functional, cell-based
[4] = test system: HUVEC; experiment: Induction of oxidative stress in HUVEC cells assessed as increase in intracellular ROS level at 5 uM incubated for 24 hrs by DCHF staining based inverted microscopic analysis; format: functional, cell-based; settings: Homo sapiens
[5] = test system: Thoracic aorta; experiment: Vasodilation activity in C57BL/6 mouse thoracic aorta assessed as relaxation of phenylephrine-induced contractions at 5 to 50 uM; format: functional, tissue-based; settings: dose 5-50 µM
[6] = test system: Mus musculus; experiment: Antihypertensive activity against C57BL/6 mouse model of Ang II-induced hypertension assessed as reduction in systolic blood pressure at 100 mg/kg/day, ip measured after 4 weeks; format: functional, organism-based; design: scale not given: the % may be the effect or the level left
[7] = test system: Mus musculus; experiment: Antihypertensive activity against C57BL/6 mouse model of Ang II-induced hypertension assessed as reduction in diastolic blood pressure at 100 mg/kg/day, ip measured after 4 weeks; format: functional, organism-based; design: scale not given: the % may be the effect or the level left
[8] = test system: Mus musculus; experiment: Reversal of Ang II infusion-induced endothelial dysfunction in C57BL/6 mouse model assessed as relaxation of ACh-stimulated vasodilation at 100 mg/kg/day, ip measured after 4 weeks; format: functional, organism-based
[9] = test system: Mus musculus; experiment: Reversal of Ang II infusion-induced smooth muscle dysfunction in C57BL/6 mouse model assessed as relaxation of SNP-stimulated vasodilation at 100 mg/kg/day, ip measured after 4 weeks; format: functional, organism-based
[10] = test system: Mus musculus; experiment: Antihypertensive activity against C57BL/6 mouse model of Ang II-induced hypertension assessed as reduction in thoracic arterial wall thickness at 100 mg/kg/day, ip measured after 4 weeks; format: functional, organism-based
[11] = test system: Mus musculus; experiment: Antihypertensive activity against C57BL/6 mouse model of Ang II-induced hypertension assessed as reduction in vascular ROS level at 100 mg/kg/day, ip measured after 4 weeks; format: functional, organism-based

| Compound | Activity [1] | Activity [3] | also measured |
| --- | --- | --- | --- |
| CC1(C)N(O)C(c2ccc(C(=O)O)cc2)=[N+]([O-])C1(C)C | Active | – | Activity [2]: Non-Toxic |
| CC1(C)CC(O)CC(C)(C)N1[O] | Active | Active | – |
| O=[N+]([O-])O[C@@H]1CO[C@H]2[C@@H]1OC[C@@H]2O | Active | – | Activity [4]: Active; Activity [5]: Active |
| 2-(2'-bromo-5'-hydroxylphenyl)-4,4,5,5-tetramethylimidazoline-1-oxyl-3-oxide | Active | – | – |
| 2-(2'-bromo-6'-hydroxylphenyl)-4,4,5,5-tetramethylimidazoline-1-oxyl-3-oxide | Active | – | – |
| 2-(2'-hydroxylphenyl)-4,4,5,5-tetramethyl-imidazoline-1-oxyl-3-oxide | Active | – | – |
| 2-(2-hydroxynaphthalen-1-yl)-4,4,5,5-tetramethylimidazoline-1-oxyl-3-oxide | Active | – | – |
| 2-(3'-bromo-4'-hydroxylphenyl)-4,4,5,5-tetramethylimidazoline-1-oxyl-3-oxide | Active | – | – |
| 2-(4-hydroxy-3-methoxyphenyl)-4,4,5,5-tetramethylimidazoline-1-oxyl-3-oxide | Active | Active | – |
| (3S,6R)-6-(nitrooxy)hexahydrofuro[3,2-b]furan-3-yl 2-(2-(4,5-dihydro-4,4,5,5-tetramethyl-3-oxido-1H-imidazole-3-ium-1-oxyl-2-yl)phenoxy)acetate | Active | Active | – |
| (3S,6R)-6-(nitrooxy)hexahydrofuro[3,2-b]furan-3-yl 2-(2-bromo-4-(4,5-dihydro-4,4,5,5-tetramethyl-3-oxido-1H-imidazole-3-ium-1-oxyl-2-yl)phenoxy)acetate | Active | Active | – |
| (3S,6R)-6-(nitrooxy)hexahydrofuro[3,2-b]furan-3-yl 2-(4-bromo-3-(4,5-dihydro-4,4,5,5-tetramethyl-3-oxido-1H-imidazole-3-ium-1-oxyl-2-yl)phenoxy)acetate | Active | Active | Activity [5]: Active |
| (3S,6R)-6-(nitrooxy)hexahydrofuro[3,2-b]furan-3-yl 3-(4,5-dihydro-4,4,5,5-tetramethyl-3-oxido-1H-imidazole-3-ium-1-oxyl-2-yl)benzoate | Active | – | Activity [4]: Active |
| (3S,6R)-6-(nitrooxy)hexahydrofuro[3,2-b]furan-3-yl 4-(4,5-dihydro-4,4,5,5-tetramethyl-3-oxido-1H-imidazole-3-ium-1-oxyl-2-yl)benzoate | Active | – | Activity [4]: Active |
| (3S,6R)-6-(nitrooxy)hexahydrofuro[3,2-b]furan-3-yl (4-(4,5-dihydro-4,4,5,5-tetramethyl-3-oxido-1H-imidazole-3-ium-1-oxyl-2-yl)naphthalen-2-yl)benzoyl)-D-prolinate | Active | Active | Activity [5]: Active; Activity [6]: 14.8%; Activity [7]: 14.3%; Activity [8]: Active; Activity [9]: Active; Activity [10]: Active; Activity [11]: Active |
| (3S,6R)-6-(nitrooxy)hexahydrofuro[3,2-b]furan-3-yl (4-(4,5-dihydro-4,4,5,5-tetramethyl-3-oxido-1H-imidazole-3-ium-1-oxyl-2-yl)naphthalen-2-yl)benzoyl)-L-prolinate | Active | Active | Activity [4]: Active |

Reference: ChEMBL document CHEMBL5154864, “Design, synthesis and biological evaluation of novel nitric oxide donors with antioxidative activity” (Eur J Med Chem, 2022)
